Laboratory results from patent US7612055B2, “Macrocyclic lactams and pharmaceutical use thereof” (Novartis AG, priority 2003, dated 2009).

melting point: 178 to 182 °C
SMILES: CCCCNC(=O)C(C)CC(O)C1C[C@H](C)CCCCCCNc2cc(cc(OC)n2)C(=O)N1 (stereo partly drawn) [Example 11, N-Butyl-4-hydroxy-4-((9R)-16-methoxy-9-methyl-13-oxo-2,12,17-triaza-bicyclo[12.3.1]octadeca-1(17),14(18),15-trien-11-yl)-2-methyl-butyramide]
